Test results from article PMC9605374 (Marine Drugs, 2022).

Columns and labels:
PC-3 = tested on: PC-3; set-up: method as in PMID 27355960; details: cited from earlier work
22Rv1 cells [1] = test: Trypan blue exclusion assay; format: cell-based; details: Homo sapiens, 22Rv1, trypan blue exclusion
Method: Figure 2 Trypan blue exclusion assay. 22Rv1 cells were treated for 48 h (A) or 168 h (B) with the indicated concentrations of NB. The cells were harvested, stained, and counted with an automatic Vi-CELL cell counter device. Number of replicates n = 3.
The trypan blue exclusion assay was used to monitor the effect of the drugs on cell viability regarding cellular membrane integrity and was performed as described before. In brief, cells (2 × 10^5 cells/well) were seeded in 6-well plates (1 mL/well) and incubated overnight. Next, the media was substituted with fresh media (1 mL/well) containing drugs at indicated concentrations. Cells were treated for 48 h, harvested by trypsination, and stained with trypan blue. The automatic Beckman Coulter Vi-CELL (Beckman Coulter, Krefeld, Germany) was used to count trypan blue-positive and -negative cells. Trypan blue-negative cells were postulated to have an intact cellular membrane (i.e., alive cells), whereas trypan blue-positive cells were assumed to have damaged cellular membrane (i.e., dead cells).

RWPE-1 = test: MTT assay, cell viability; format: cell-based; details: Homo sapiens, RWPE-1, 48 h of treatment, mean ± SD
Description: (§1) To examine the anticancer potential and selectivity of NB, we used a panel of six human prostate cancer cell lines, harboring different levels of treatment resistance to representatively reflect the heterogeneity of the disease. […] Additionally, four human noncancer cells lines were utilized in order to determine the selectivity of NB towards prostate cancer cells, i.e., prostate noncancer PNT2 and RWPE-1 cells, human embryonic kidney HEK 293T cells, and human fibroblasts MRC-9. The different cell lines were treated with NB and the cell viability was examined using MTT assay (Figure 1). The mean IC50 of NB and docetaxel (used as a reference substance) in noncancerous cell lines was divided by the mean IC50 in the prostate cancer cell lines to determine the selectivity index (SI).
(§2) The MTT assay was used to monitor the effect of the drugs on cell viability in terms of metabolic activity, as previously reported. First, preincubation of the cells in 96-well plates (6 × 10^3 cells/well in 100 μL/well) was performed overnight in the correspondent culture medium. Next, the medium was exchanged for fresh medium containing the investigated compounds or a vehicle (100 μL/well). Cells were then incubated for 48 h, unless otherwise stated. Then, 10 μL/well of 3-(4,5-dimethylthiazol-2-yl)-2,5-diphenyltetrazolium bromide reagent (MTT, 5 mg/mL) were added. After 2–4 h of additional incubation the media was removed, and the plates were dried. Finally, 50 μL/well of DMSO were added to solve the formed formazan crystals produced by the metabolic active cells and Infinite F200PRO reader (TECAN, Männedorf, Switzerland) was used to measure the cell viability. The results were proceeded with a GraphPad Prism software v.9.1.1 (GraphPad Software, San Diego, CA, USA). Cells treated with the solvent of the drugs alone were used as a control (100% alive cells). The effect of the drugs on cell viability is represented as IC50.

22Rv1 = test: MTT assay, cell viability; format: cell-based; details: Homo sapiens, 22Rv1, 48 h of treatment, mean ± SD
Description: as §1, §2

DU145 = test: MTT assay, cell viability; format: cell-based; details: Homo sapiens, DU-145, DU145, 48 h of treatment, mean ± SD
Description: as §1, §2

PNT2 = test: MTT assay, cell viability; format: cell-based; details: Homo sapiens, PNT2, 48 h of treatment, mean ± SD
Description: as §1, §2

PC3 = test: MTT assay, cell viability; format: cell-based; details: Homo sapiens, PC-3, PC3, 48 h of treatment, mean ± SD
Description: as §1, §2

VCaP = test: MTT assay, cell viability; format: cell-based; details: Homo sapiens, 48 h of treatment, mean ± SD
Description: as §1, §2

22Rv1 cells [2] = test: Drug combination study NB with MAPK inhibitors, MTT assay, SynergyFinder 2.0; format: cell-based; details: Homo sapiens, 22Rv1, 24 h, 24 h; for inhibition at 0.8 µM: 22Rv1, NB alone 0.8 μM; for inhibition at 3.1 µM: 22Rv1, NB alone 3.1 μM; for inhibition at 12.5 µM: 22Rv1, NB alone 12.5 μM; for inhibition at 50 µM: 22Rv1, NB alone 50 μM
Description: Whether activation of MAPKs contribute to cell death or survival depends not only on the cellular context, but also on the nature of the activating stimuli. Thus, to reveal the function of JNK1/2 and p38 in the anticancer effect of NB, we co-treated 22Rv1 cells with NB and specific inhibitors of the above-mentioned MAPKs. […] As MEK1/2 kinase directly and exclusively activates ERK1/2, PD98039 inhibitor is often used as an ERK1/2 inhibitor [38]. Thus, an inactivation of MEK1/2 leads solely to an inhibition of ERK1/2 [38]. Since the inhibitors themselves exert cytotoxic effects in cancer cells, we used a Chou–Talalay method to distinguish between synergism, additive effects, or antagonistic effects of the particular MAPK inhibitor on the compound bioactivity. For this, using an MTT assay, we determined a cytotoxic effect on various concentrations of NB, MAPK inhibitors, and their combinations in 22Rv1 cells. The viability data were further analyzed using the SynergyFinder v. 2.0 software (Network Pharmacology for Precision Medicine in the Research Program of System Oncology, Faculty of Medicine at University of Helsinki, Helsinki, Finland) and a Zero interaction potency (ZIP) reference model (Figure 7).
The experiments were carried out as previously reported. […] 22Rv1 cells (6 × 10^3 cells/well in 96-well plates) were simultaneously treated with NB and docetaxel; or pretreated with MAPK inhibitors for 1 h following treatment with NB in the total media volume of 100 µL/well. Following 24 h of incubation, the viability of the cells treated with individual drugs as well as their combinations was determined using MTT assay. […] Red areas (positive δ-values) and green areas (negative δ-values) indicate synergism and antagonism, respectively.

Artemia salina = tested on: Artemia salina; set-up: method as in PMID 26039736; details: cited from earlier work
[3] = biological target: p-glycoprotein (p-gp, MDR1) in PC3-DR cells (Homo sapiens, UniProt P08183); test: Calcein-AM exclusion assay, p-glycoprotein activity
Description: To further understand the interactions of NB and p-gp, and the effect of NB on p-gp activity, we performed a calcein-AM-exclusion assay. Consequently, p-gp overexpressing PC3-DR cells were chosen as a test model. This assay utilizes calcein-AM (calcein acetoxymethyl ester), a nonfluorescent dye that enters cells through passive diffusion and exits cells through p-gp. Metabolic active cells contain cytosolic esterases that hydrolyze calcein-AM into its green-fluorescent form (calcein). The green fluorescence can be further measured. However, in p-gp overexpressing cells, calcein-AM is excreted out of the cell before it is metabolized. […] Application of p-gp inhibitors, such as tariquidar (TQD), leads to the accumulation of calcein-AM/calcein inside the cells and, therefore, to increased fluorescence. […] In our experiments, PC3-DR cells were exposed to NB for 30 min followed by incubation with calcein-AM.
(A) Effect of NB on calcein accumulation (measures as green fluorescence) in PC3-DR cells. The effect was measures following 30 min incubation with the drug. P-gp inhibitor tariquidar (TQD, 50 nM) was used as a positive control. Number of replicates n = 3.
The experiment was performed as previously described [42]. […] The green fluorescence was measured with Infinite F200PRO reader (TECAN, Männedorf, Switzerland). […]

PC3-DR = test: MTT assay, cell viability; format: cell-based, human
Description: as §1, §2

splenocytes = tested on: splenocytes; set-up: method as in PMID 27355960; details: cited from earlier work

Sequence of p-glycoprotein (p-gp, MDR1) in PC3-DR cells (P08183 whole entry): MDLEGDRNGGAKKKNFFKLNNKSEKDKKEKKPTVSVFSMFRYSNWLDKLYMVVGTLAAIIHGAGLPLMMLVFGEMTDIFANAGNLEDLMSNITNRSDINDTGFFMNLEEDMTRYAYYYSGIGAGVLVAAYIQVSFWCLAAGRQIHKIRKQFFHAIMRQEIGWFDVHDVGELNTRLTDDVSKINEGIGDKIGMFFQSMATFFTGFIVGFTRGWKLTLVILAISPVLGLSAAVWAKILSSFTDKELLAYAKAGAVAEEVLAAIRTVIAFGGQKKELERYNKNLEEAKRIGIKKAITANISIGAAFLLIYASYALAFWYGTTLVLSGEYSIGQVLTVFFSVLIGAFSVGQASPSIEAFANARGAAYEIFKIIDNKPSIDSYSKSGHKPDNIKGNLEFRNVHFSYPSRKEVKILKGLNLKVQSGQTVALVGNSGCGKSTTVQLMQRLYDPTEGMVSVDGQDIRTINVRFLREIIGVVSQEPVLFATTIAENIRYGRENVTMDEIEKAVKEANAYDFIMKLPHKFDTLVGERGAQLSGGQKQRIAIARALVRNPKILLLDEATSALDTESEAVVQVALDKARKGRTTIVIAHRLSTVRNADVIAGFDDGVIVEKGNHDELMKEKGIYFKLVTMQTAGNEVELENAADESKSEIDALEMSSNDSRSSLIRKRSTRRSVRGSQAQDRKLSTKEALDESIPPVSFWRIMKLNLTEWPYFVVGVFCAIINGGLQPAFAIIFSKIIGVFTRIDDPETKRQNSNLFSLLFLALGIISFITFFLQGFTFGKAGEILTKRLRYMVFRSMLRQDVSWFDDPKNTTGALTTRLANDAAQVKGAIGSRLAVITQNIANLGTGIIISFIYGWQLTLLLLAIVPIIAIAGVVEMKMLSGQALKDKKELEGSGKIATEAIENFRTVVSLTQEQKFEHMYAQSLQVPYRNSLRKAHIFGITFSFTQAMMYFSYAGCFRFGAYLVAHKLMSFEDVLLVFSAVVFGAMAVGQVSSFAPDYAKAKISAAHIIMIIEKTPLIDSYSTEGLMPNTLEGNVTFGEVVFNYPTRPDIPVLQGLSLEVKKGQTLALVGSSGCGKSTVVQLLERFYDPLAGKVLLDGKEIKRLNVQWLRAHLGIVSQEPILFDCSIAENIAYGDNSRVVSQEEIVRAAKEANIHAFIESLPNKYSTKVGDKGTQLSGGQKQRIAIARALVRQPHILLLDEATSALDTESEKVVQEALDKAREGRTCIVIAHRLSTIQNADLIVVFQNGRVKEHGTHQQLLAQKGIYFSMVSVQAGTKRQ

## COc1ccc(C2SSC34CC5(O)C(Cl)C=CC(O)C5ON3C(=O)C2N(C)C4=O)c(O)c1OC (stereo not drawn) [NB, N-methylpretrichodermamide B]
PC-3
  IC50: 5.11 µM
22Rv1 cells [1]; 48 h
  IC50: 0.129 ± 0.062 µM
22Rv1 cells [1]; 168 h
  IC50: 0.276 ± 0.058 µM
RWPE-1
  IC50: 16.4 ± 1.87 µM
22Rv1
  IC50: 3.02 ± 2.5 µM
DU145
  IC50: 13 ± 2.69 µM
PNT2
  IC50: 25.1 ± 5.92 µM
PC3
  IC50: 6.03 ± 1.18 µM
VCaP
  IC50: 0.143 ± 0.145 µM
22Rv1 cells [2]; matrix with PD98059 (0 μM)
  inhibition at 0.8 µM: 28.5%
  inhibition at 3.1 µM: 35.2%
  inhibition at 12.5 µM: 43.4%
  inhibition at 50 µM: 51.9%
22Rv1 cells [2]; matrix with SB203580 (0 μM)
  inhibition at 0.8 µM: 29.1%
  inhibition at 3.1 µM: 33.3%
  inhibition at 12.5 µM: 48.2%
  inhibition at 50 µM: 54.9%
22Rv1 cells [2]; matrix with SP600125 (0 μM)
  inhibition at 0.8 µM: 17.3%
  inhibition at 3.1 µM: 25.2%
  inhibition at 12.5 µM: 40.5%
  inhibition at 50 µM: 41%
Artemia salina
  LD50: 4.8 µM
[3]; 30 min exposure, nanomolar concentrations, dose-dependent
  calcein accumulation (green fluorescence), p-gp inhibition: significantly increased the green fluorescence
[3]; calcein-AM, noncytotoxic concentration
  concentration at which an inhibitory effect on p-gp activity was already detected: 312.5 nM
PC3-DR; 48 h
  IC50 in PC3-DR compared to the parental PC3 cells: twofold lower
PC3-DR; Homo sapiens, PC3-DR, 48 h of treatment, mean ± SD
  IC50: 3.63 ± 1.03 µM
splenocytes
  ID50, cytotoxic activity in splenocytes: 62.1 µM
